In US20220127247A1, “N-(PYRIDIN-2-YL)PYRIDINE-SULFONAMIDE DERIVATIVES AND THEIR USE IN THE TREATMENT OF DISEASE” (NOVARTIS AG, priority 2019, published 2022):
pEC50: −log10 of the molar value.

Columns and labels:
delF508-CFTR [1] = molecular target: T1, delF508-CFTR (Homo sapiens, UniProt P13569, DEL508-508); assay: Measurement of delF508-CFTR-HRP surface expression in CFBE41o- cells; format: cell-based; conditions: for pEC50: HRP-tagged delF508-CFTR in CFBE41o- cells, 24 h with compound, luminescence, 10-point curve, top 10 μM; for Emax: efficacy relative to reference compound 3-(6-(1-(2,2-difluorobenzo[d][1,3]dioxol-5-yl)cyclopropane-1-carboxamido)-3-methylpyridin-2-yl)benzoic acid, CFBE41o- cells, 24 h, read-out: DelF508-CFTR-HRP Amax %
T1 construct: expressed in transfected cells
Method in brief: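 CFBE41o- cells stably expressing delF508-CFTR with HRP in the fourth extracellular loop, induced with 500 ng/mL doxycycline for 48 h, then treated with compound (top 10 μM, 10-point 3-fold) for 24 h at 37° C. Surface HRP detected by luminescence with cell-impermeant substrate; EC50 from logistic fit of triplicates, normalized to lowest concentration.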

delF508-CFTR [2] = molecular target: T1, delF508-CFTR; assay: delF508-CFTR functional activity in primary human bronchial epithelial cells (HBECs), Multi-Transepithelial Clamp Circuit (MTECC-24) assay; format: cell-based; conditions: for pEC50: primary human delF508-CFTR bronchial epithelial cells, 24 h with compound, equivalent short circuit current (Ieq), forskolin plus potentiator, mean of at least two replicates, read-out: MTECC24-CFHBEC EC50; for MTECC24-CFHBEC Amax %: test compound added 24 h before assay, with potentiator (S)-3-amino-6-methoxy-N-(3,3,3-trifluoro-2-hydroxy-2-methylpropyl)-5-(trifluoromethyl)picolinamide, relative to 2 μM 3-(6-(1-(2,2-difluorobenzo[d][1,3]dioxol-5-yl)cyclopropane-1-carboxamido)-3-methylpyridin-2-yl)benzoic acid + 0.5 μM N-(2,4-di-tert-butyl-5-hydroxyphenyl)-4-oxo-1,4-dihydroquinoline-3-carboxamide
Description: Measurement of delF508-CFTR Functional Activity in Primary Human Bronchial Epithelial Cells (HBECs) Using Multi-Transepithelial Clamp Circuit (MTECC-24) Assay
This assay measures the functional activity of the CFTR channel (Chloride ion transport) in patient derived primary human bronchial epithelial cells with forskolin activation and in the presence of the CFTR corrector/potentiator combination.
Primary human delF508-CFTR bronchial epithelial cells were and cultured according to previously established methods (Neuberger, T. et, al., Methods in Molecular Biology, 2011, 741, pp 39-54). Briefly, before thawing the HBEC cells, T25 flasks were coated with 2 mL of 3T3 conditioned media (MTI-GlobalStem, Cat #GSM9100) for at least 12 hours in 37° C. CO2 incubator. 1.7×10^5 cells were seeded into one T25 flask with 5 mL of HBE growth media (BEBM with supplements (Lonza, Cat #CC-3170) with 10 nM of retinoic acid (Sigma, Cat #R-2625) and 1% of PSA (Hyclone, Cat #SV30079.01). Media was changed every day till the cells were 100% confluent. Cells were seeded into T75 flasks (pre-coated with 5 mL of 3T3 conditioned media for more than 12 hrs) at 4.95×10^5 cells/T75 flask in 15 mL of HBE growth media. Flasks were fed everyday with fresh HBE growth media until the cells were confluent. 24-well transwell plates (Corning, Cat #3378) were coated with 3T3 conditioned media (70 μL on top of the filter, 350 μL to the bottom of the well) overnight in the 37° C. CO2 incubator. Cells were seeded in the pre-coated 24-well transwell plates at 1.7×10^5 cell/well with 700 μL of growth media at the bottom of the well and 200 μL of growth media at the top of the filter. After 24 hrs, cells were switched into HBE differentiation media ((DMEM/F12 (Gibco, Cat #11330-032) supplement with 2% Ultroser G (Pall, Cat #15950-017), 2% of Fetal Clone II (Hyclone, Cat #SH30066.03), 0.25% Bovine Brain Extract (Lonza, Cat #CC-4098), 1% of PSA, 2.5 μg/mL of Insulin (Sigma, Cat #19278), 20 nM of Hydrocortisone (Sigma, Cat #H0888), 500 nM of Triiodothyronine (Sigma, Cat #T6397), 2.5 μg/mL of Transferrin (Sigma, Cat #T8158), 250 nM of Ethanolamine (Sigma, Cat #E0135), 1.5 μM of Epinephrine (Sigma, Cat #E4250), 250 nM of Phosphoethanolamine (Sigma, Cat #P0503), 10 nM of retinoic acid)) with 200 μL on top of the filter (apical side) and 700 μL at the bottom of the well (basolateral side). Cells were fed every other day with the differentiation media. After 4 days, cells were exposed to air/liquid interface. Then cells were fed every other day for 4 weeks before fully differentiated.
Cells were washed with 3 mM DTT in PBS at 70 ul/well for 30 min at 37° C. 6 days before the assay. 3 days before the assay, cells were washed again with PBS at 70 ul/well for 30 min at 37° C. Then cells were treated with compound for 24 hrs before the assay.
Following 24 hr treatment with compound, cells were transferred into plates containing 750 ul of assay media on basolateral side and 250 ul on apical side (Assay medium: F-12 Coon's modified, 20 mM HEPES pH7.4 with TRIS Base, No FCS or bicarbonate). The plates wee then transferred to the heated plate compartments (basolateral buffer temperature ˜36.5° C. on the heating block) of the TECC24 system for 45 mins prior to measurements.
Modulators were added sequentially as follows while the TECC24 instrument recorded the equivalent short circuit current (Ieq):
Prior to dilution into assay medium the stocks were as follows: • Benzamil stock: 10 mM in DMSO • Forskolin Stock: 50 mM in DMSO • N-(2,4-di-tert-butyl-5-hydroxyphenyl)-1,4-dihydro-4-oxoquinoline-3-carboxamide: 50 mM in DMSO • (S)-3-amino-6-methoxy-N-(3,3,3-trifluoro-2-hydroxy-2-methylpropyl)-5-(trifluoromethyl)picolinamide: 50 mM stock 100% DMSO • Bumetanide stock: 20 mM in EtOH
The data was normalized using the median signal from wells treated with 0.1% DMSO as a baseline. Curve fitting and EC50 calculations were performed using the following equation: […]

T1 sequence (P13569 with tags, fused parts or gaps DEL508-508): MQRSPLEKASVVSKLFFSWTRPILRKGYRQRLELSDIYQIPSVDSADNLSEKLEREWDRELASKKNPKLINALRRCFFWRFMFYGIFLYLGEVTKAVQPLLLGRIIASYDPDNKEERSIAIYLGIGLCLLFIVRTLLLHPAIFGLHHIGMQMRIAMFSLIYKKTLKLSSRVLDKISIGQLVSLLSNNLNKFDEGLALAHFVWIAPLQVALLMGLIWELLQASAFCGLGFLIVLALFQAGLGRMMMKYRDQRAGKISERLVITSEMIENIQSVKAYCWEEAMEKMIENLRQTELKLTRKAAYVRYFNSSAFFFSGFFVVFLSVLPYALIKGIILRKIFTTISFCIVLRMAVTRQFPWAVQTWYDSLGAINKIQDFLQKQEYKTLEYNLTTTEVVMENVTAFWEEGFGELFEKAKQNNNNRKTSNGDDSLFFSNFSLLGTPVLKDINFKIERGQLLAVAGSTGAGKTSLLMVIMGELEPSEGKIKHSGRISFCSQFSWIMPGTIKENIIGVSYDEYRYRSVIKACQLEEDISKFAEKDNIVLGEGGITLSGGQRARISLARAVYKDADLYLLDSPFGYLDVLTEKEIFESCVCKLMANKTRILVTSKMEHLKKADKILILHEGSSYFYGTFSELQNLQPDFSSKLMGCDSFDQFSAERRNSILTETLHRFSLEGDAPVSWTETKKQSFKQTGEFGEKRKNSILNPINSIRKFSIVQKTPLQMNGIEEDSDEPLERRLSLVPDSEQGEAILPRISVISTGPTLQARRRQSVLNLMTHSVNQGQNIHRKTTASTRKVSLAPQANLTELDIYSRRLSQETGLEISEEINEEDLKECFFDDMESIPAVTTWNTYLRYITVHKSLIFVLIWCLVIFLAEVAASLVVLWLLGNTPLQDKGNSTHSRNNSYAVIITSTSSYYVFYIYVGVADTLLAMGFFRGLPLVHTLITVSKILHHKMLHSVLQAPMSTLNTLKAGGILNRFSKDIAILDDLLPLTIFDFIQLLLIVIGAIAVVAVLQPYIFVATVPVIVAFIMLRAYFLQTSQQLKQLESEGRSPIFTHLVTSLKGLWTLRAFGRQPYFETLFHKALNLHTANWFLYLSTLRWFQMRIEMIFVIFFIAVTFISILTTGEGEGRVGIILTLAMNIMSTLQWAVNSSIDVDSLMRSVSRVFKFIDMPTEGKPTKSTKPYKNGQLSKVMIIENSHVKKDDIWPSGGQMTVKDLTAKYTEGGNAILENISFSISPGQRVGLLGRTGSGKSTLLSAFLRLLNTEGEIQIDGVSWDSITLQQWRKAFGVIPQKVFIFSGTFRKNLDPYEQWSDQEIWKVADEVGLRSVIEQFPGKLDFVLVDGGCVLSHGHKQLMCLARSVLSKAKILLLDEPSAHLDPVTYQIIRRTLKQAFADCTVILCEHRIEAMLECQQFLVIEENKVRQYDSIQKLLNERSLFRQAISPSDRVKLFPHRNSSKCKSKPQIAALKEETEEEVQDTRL

SMILES	pEC50 (delF508-CFTR [1])	Emax (delF508-CFTR [1]) [%]	pEC50 (delF508-CFTR [2])	MTECC24-CFHBEC Amax % (delF508-CFTR [2]) [%]
Cc1ccccc1-c1nc(NS(=O)(=O)c2cccc(N3CCC[C@@H](CC(=O)O)C3)n2)ccc1C(F)(F)F [Compound 60, (S)-2-(1-(6-(N-(6-(o-tolyl)-5-(trifluoromethyl)pyridin-2-yl)sulfamoyl)pyridin-2-yl)piperidin-3-yl)acetic Acid]	5.72	997	7.19	128
Cc1ccccc1-c1nc(NS(=O)(=O)c2cccc(N(C)CCCCC(=O)O)n2)ccc1C(F)(F)F [Compound 66, 5-(methyl(6-(N-(6-(o-tolyl)-5-(trifluoromethyl)pyridin-2-yl)sulfamoyl)pyridin-2-yl)amino)pentanoic Acid]	5.80	–	6.73	133
Cc1c(F)cccc1-c1nc(NS(=O)(=O)c2cccc(N(C)CCCCC(=O)O)n2)ccc1C(F)(F)F [Compound 67, 5-((6-(N-(6-(3-fluoro-2-methylphenyl)-5-(trifluoromethyl)pyridin-2-yl)sulfamoyl)pyridin-2-yl)(methyl)amino)pentanoic Acid]	5.79	–	6.79	168
Cc1ccc(F)cc1-c1nc(NS(=O)(=O)c2cccc(N(C)CCCCC(=O)O)n2)ccc1C(F)(F)F [Compound 68, 5-((6-(N-(6-(5-fluoro-2-methylphenyl)-5-(trifluoromethyl)pyridin-2-yl)sulfamoyl)pyridin-2-yl)(methyl)amino)pentanoic Acid]	5.87	996	6.37	116
CCN(CCC(=O)O)c1cccc(S(=O)(=O)Nc2ccc(C(F)(F)F)c(-c3ccccc3C(C)C)n2)n1 [Compound 70, 3-(ethyl(6-(N-(6-(2-isopropylphenyl)-5-(trifluoromethyl)pyridin-2-yl)sulfamoyl)pyridin-2-yl)amino)propanoic Acid]	5.80	–	7.17	126
CCN(CCC(=O)O)c1cccc(S(=O)(=O)Nc2ccc(C(F)(F)F)c(-c3ccccc3C)n2)n1 [Compound 71, 3-(ethyl(6-(N-(6-(o-tolyl)-5-(trifluoromethyl)pyridin-2-yl)sulfamoyl)pyridin-2-yl)amino)propanoic Acid]	5.63	–	6.44	137
CCc1ccccc1-c1nc(NS(=O)(=O)c2cccc(N(CC)CCC(=O)O)n2)ccc1C(F)(F)F [Compound 72, 3-(ethyl(6-(N-(6-(2-ethylphenyl)-5-(trifluoromethyl)pyridin-2-yl)sulfamoyl)pyridin-2-yl)amino)propanoic Acid]	5.73	–	6.94	118
CCN(CCC(=O)O)c1cccc(S(=O)(=O)Nc2ccc(C(F)(F)F)c(-c3ccccc3C3CC3)n2)n1 [Compound 80, 3-((6-(N-(6-(2-cyclopropylphenyl)-5-(trifluoromethyl)pyridin-2-yl)sulfamoyl)pyridin-2-yl)(ethyl)amino)propanoic Acid]	5.71	–	6.98	95
CCc1ccc(F)cc1-c1nc(NS(=O)(=O)c2cccc(N(CC)CCC(=O)O)n2)ccc1C(F)(F)F [Compound 81, 3-(ethyl(6-(N-(6-(2-ethyl-5-fluorophenyl)-5-(trifluoromethyl)pyridin-2-yl)sulfamoyl)pyridin-2-yl)amino)propanoic Acid]	5.75	–	7.46	145
CCc1ccccc1-c1nc(NS(=O)(=O)c2cccc(N3CCC[C@@H](CC(=O)O)C3)n2)ccc1C(F)(F)F [Compound 85, (S)-2-(1-(6-(N-(6-(2-ethylphenyl)-5-(trifluoromethyl)pyridin-2-yl)sulfamoyl)pyridin-2-yl)piperidin-3-yl)acetic Acid]	5.85	–	7.52	152
